Assay results from patent US4451461A, “10-(1-Aza-[2,2,2)-bicyclo-3-octyl]-10H-2-phenothiazinesulfonamide and derivatives thereof” (Pharmindustrie, priority 1981, dated 1984).

System: gastric hypersecretion stimulated by pentagastrine (Heidenhein pouch dogs)
Assay: Anti-secretory activity against pentagastrine-stimulated gastric hypersecretion in dogs fitted with the Heidenhein pouch
Type: in vivo, dog (mongrels)
Details: for ED50 (dose which reduces the hourly acid output by 50% during the 3rd or 4th hour in relation to the second hour of perfusion): p.o., gelatine capsule, 1.5 h after start of pentagastrine perfusion, dogs, doses expressed as base
Description: The anti-secretory activity of the compounds of formula (I) according to the invention has been investigated in cases of gastric hypersecretion which has been stimulated by pentagastrine in dogs fitted with the Heidenhein pouch.
Three mongrels, fitted with the Heidenhein pouch and not having eaten for 18 hours, were given a veinous perfusion of […] pentagastrine, at a volume of 30 ml/hour for 4 hours. The secretion in the pouch was collected in a bottle which was changed every 15 minutes. 1.5 hours after commencement of the perfusion, the product to be investigated was administered orally in an h°000 gelatine-coated capsule. The effective dose 50% (ED50) is the dose which reduces the hourly acid output by 50% during the 3rd or 4th hour of the experiment in relation to the acid output of the second hour of perfusion. The doses are expressed as a product in basic form.

Row | Compound | ED50 (dose which reduces the hourly acid output by 50% during the 3rd or 4th hour in relation to the second hour of perfusion) | activity compared with cimetidine (in words) (Heidenhein pouch dogs, oral, vs cimetidine)
1 | CN/C(=N/CCSCc1nc[nH]c1C)NC#N [Cimetidine] | 2.3 mg/kg | –
2 | CN(C)S(=O)(=O)c1ccc2c(c1)N(C1CN3CCC1CC3)c1ccccc1S2 (stereo not shown) [N,N-dimethyl-10-[1-aza-(2,2,2)-bicyclo-3-octyl]-10H-2-phenothiazinesulfonamide] | 1.25 mg/kg | –
3 | CNS(=O)(=O)c1ccc2c(c1)N(C1CN3CCC1CC3)c1ccccc1S2 (stereo not shown) [Example 2, N-METHYL-10-[1-AZA-(2,2,2)-BICYCLO-3-OCTYL]-10H-2-PHENOTHIAZINESULFONAMIDE] | 0.7 mg/kg | more active than cimetidine
